Reference: patent publication US20260317324A1, “BIFUNCTIONAL COMPOUNDS FOR DEGRADING BRAF VIA UBIQUITIN PROTEOSOME PATHWAY” (Nurix Therapeutics, Inc., priority 2023, published 2026)

How the values were obtained:
Format in all cases: cell-based
BRAF V600E = target: T1, BRAF V600E (Homo sapiens, UniProt P15056, V600E); test: BRAF HiBiT degradation assay, C-terminal HiBiT-tagged BRAF V600E A375 cells (clone 1F10), Nano-Glo HiBiT Lytic assay; settings: A375 (BRAF V600E, Class 1); for DC50: DC50 at 50% degradation; for Dmax: A-375, observed Dmax, % protein degraded relative to DMSO control
T1 construct: endogenous C-terminal HiBiT fusion tag on BRAF V600E allele; endogenous in cells; host or cells: A375 clone 1F10 (CRISPR-Cas9 knock-in of the HiBiT tag; parental A375 from ATCC)
T1 sequence (P15056 whole entry V600E, the tested form may be a part): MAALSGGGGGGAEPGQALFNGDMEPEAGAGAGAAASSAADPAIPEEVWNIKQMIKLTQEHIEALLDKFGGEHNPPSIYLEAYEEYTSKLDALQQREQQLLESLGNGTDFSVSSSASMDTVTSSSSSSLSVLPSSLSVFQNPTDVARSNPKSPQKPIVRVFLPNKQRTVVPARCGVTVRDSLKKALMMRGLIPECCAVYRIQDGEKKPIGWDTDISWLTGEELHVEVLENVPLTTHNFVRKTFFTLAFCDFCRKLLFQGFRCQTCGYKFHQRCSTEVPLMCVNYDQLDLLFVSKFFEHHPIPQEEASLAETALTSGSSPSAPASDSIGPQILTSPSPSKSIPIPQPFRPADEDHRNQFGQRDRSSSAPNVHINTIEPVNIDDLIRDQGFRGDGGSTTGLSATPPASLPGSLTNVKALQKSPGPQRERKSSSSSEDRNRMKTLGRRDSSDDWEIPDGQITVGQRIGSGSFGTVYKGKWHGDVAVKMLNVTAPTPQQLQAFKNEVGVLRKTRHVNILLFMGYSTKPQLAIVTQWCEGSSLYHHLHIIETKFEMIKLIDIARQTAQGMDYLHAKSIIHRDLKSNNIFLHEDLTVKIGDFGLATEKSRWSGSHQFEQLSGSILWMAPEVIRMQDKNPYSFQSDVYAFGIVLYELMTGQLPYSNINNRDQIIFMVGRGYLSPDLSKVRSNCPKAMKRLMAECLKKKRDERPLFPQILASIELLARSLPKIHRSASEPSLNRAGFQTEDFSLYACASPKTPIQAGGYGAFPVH
Procedure, shortened: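 Steps: seed HiBiT-tagged A375 clone 1F10 cells; incubate 24 h, 37 °C, 5% CO2; add compound (11 half-log points from 1 μM, 0.2% DMSO); lyse with HiBiT detection reagent plus LgBiT for 10 min; read luminescence; fit % protein remaining against concentration.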

BRAF G469A = target: T2, BRAF G469A (Homo sapiens, UniProt P15056, G469A); test: BRAF HiBiT degradation assay, C-terminal HiBiT-tagged BRAF G469A overexpressed in HCT-116 BRAF−/− cells (clone 34), Nano-Glo HiBiT Lytic assay; settings: BRAF G469A (Class 2), HCT-116 BRAF−/− cells; for DC50: DC50 at 50% degradation; for Dmax: observed Dmax relative to DMSO control
T2 construct: Horizon Discovery (HCT-116 BRAF−/− cells); host or cells: HCT-116 BRAF−/− cells, clone 34, lentiviral transduction
T2 sequence (P15056 whole entry G469A): as the sequence (P15056 whole entry V600E, the tested form may be a part) above, with G469A, E600V counted along it
Procedure, shortened: (§1)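 We quantified degradation of the C-terminally HiBiT-tagged, overexpressed mutant by lytic luminescence, normalizing to DMSO-treated cells with wild-type HCT-116 background subtracted. Dose series ran from 1 μM to 0.01 nM at 0.2% DMSO. Observed Dmax is % degraded at maximal effect.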

BRAF D594G = target: T3, BRAF D594G (Homo sapiens, UniProt P15056, D594G); test: BRAF HiBiT degradation assay, C-terminal HiBiT-tagged BRAF D594G overexpressed in HCT-116 BRAF−/− cells (clone 63), Nano-Glo HiBiT Lytic assay; settings: BRAF D594G (Class 3), HCT-116 BRAF−/− cells; for DC50: DC50 at 50% degradation; for Dmax: observed Dmax relative to DMSO control
T3 construct: Horizon Discovery (HCT-116 BRAF−/− cells); host or cells: HCT-116 BRAF−/− cells, clone 63, lentiviral transduction
T3 sequence (P15056 whole entry D594G): as the sequence (P15056 whole entry V600E, the tested form may be a part) above, with D594G, E600V counted along it
Procedure, shortened: as §1

BRAF G466V = target: T4, BRAF G466V (Homo sapiens, UniProt P15056, G466V); test: BRAF HiBiT degradation assay, C-terminal HiBiT-tagged BRAF G466V overexpressed in HCT-116 BRAF−/− cells (clone 8), Nano-Glo HiBiT Lytic assay; settings: BRAF G466V (Class 3), HCT-116 BRAF−/− cells; for DC50: DC50 at 50% degradation; for Dmax: observed Dmax relative to DMSO control
T4 construct: Horizon Discovery (HCT-116 BRAF−/− cells); host or cells: HCT-116 BRAF−/− cells, clone 8, lentiviral transduction
T4 sequence (P15056 whole entry G466V): as the sequence (P15056 whole entry V600E, the tested form may be a part) above, with G466V, E600V counted along it
Procedure, shortened: as §1

Structure (SMILES)	DC50 (BRAF V600E) [nM]	Dmax (BRAF V600E) [%]	DC50 (BRAF G469A) [nM]	Dmax (BRAF G469A) [%]	DC50 (BRAF D594G) [nM]	Dmax (BRAF D594G) [%]	DC50 (BRAF G466V) [nM]	Dmax (BRAF G466V) [%]
O=C1CCC(c2ccc(N3CCC(CN4CCN(c5ccc(-n6cc(-c7cc(Cl)cc(NS(=O)(=O)N8CCCC8)c7F)c(-c7ccncc7)n6)cc5)CC4)CC3)c(F)c2)C(=O)N1 (racemic) [Compound 347, Rac-N-{5-chloro-3-[1-(4-{4-[(1-{4-[(3R)-2,6-dioxopiperidin-3-yl]-2-fluorophenyl}piperidin-4-yl)methyl]piperazin-1-yl}phenyl)-3-(pyridin-4-yl)-1H-pyrazol-4-yl]-2-fluorophenyl}pyrrolidine-1-sulfonamide]	< 10	> 70	10 to 50	30 to 70	< 10	> 70	< 10	> 70
O=C1CCC(c2ccc(N3CCC(CN4CCN(c5ccc(-n6cc(-c7cc(Cl)cc(NS(=O)(=O)N8CCCC8)c7F)c(-c7ccncc7)n6)cc5)CC4)CC3)cc2F)C(=O)N1 (racemic) [Compound 348, Rac-N-{5-chloro-3-[1-(4-{4-[(1-{4-[(3R)-2,6-dioxopiperidin-3-yl]-3-fluorophenyl}piperidin-4-yl)methyl]piperazin-1-yl}phenyl)-3-(pyridin-4-yl)-1H-pyrazol-4-yl]-2-fluorophenyl}pyrrolidine-1-sulfonamide]	< 10	> 70	10 to 50	30 to 70	< 10	30 to 70	< 10	> 70
O=C1CCC(c2ccc(N3CCC(CN4CCN(c5ccc(-n6cc(-c7cc(C(F)F)cc(NS(=O)(=O)N8CCCC8)c7F)c(-c7ccncc7)n6)cc5)CC4)CC3)nc2)C(=O)N1 (racemic) [Compound 350, Rac-N-[5-(difluoromethyl)-3-[1-(4-{4-[(1-{5-[(3R)-2,6-dioxopiperidin-3-yl]pyridin-2-yl}piperidin-4-yl)methyl]piperazin-1-yl}phenyl)-3-(pyridin-4-yl)-1H-pyrazol-4-yl]-2-fluorophenyl]pyrrolidine-1-sulfonamide]	< 10	> 70	< 10	> 70	< 10	> 70	< 10	> 70
O=C1CCC(c2ccc(N3CCC(CN4CCN(c5ccc(-n6cc(-c7cc(Cl)cc(NS(=O)(=O)N8CCCC8)c7F)c(-c7ccncc7)n6)cn5)CC4)CC3)nc2)C(=O)N1 (racemic) [Compound 352, Rac-N-{5-chloro-3-[1-(6-{4-[(1-{5-[(3R)-2,6-dioxopiperidin-3-yl]pyridin-2-yl}piperidin-4-yl)methyl]piperazin-1-yl}pyridin-3-yl)-3-(pyridin-4-yl)-1H-pyrazol-4-yl]-2-fluorophenyl}pyrrolidine-1-sulfonamide]	< 10	> 70	< 10	> 70	< 10	30 to 70	< 10	> 70
O=C1CCC(c2ccc(N3CCC(CN4CCN(c5cc(F)c(-n6cc(-c7cc(Cl)cc(NS(=O)(=O)N8CCCC8)c7F)c(-c7ccncc7)n6)cc5F)CC4)CC3)nc2)C(=O)N1 (racemic) [Compound 354, Rac-N-{5-chloro-3-[1-(4-{4-[(1-{5-[(3R)-2,6-dioxopiperidin-3-yl]pyridin-2-yl}piperidin-4-yl)methyl]piperazin-1-yl}-2,5-difluorophenyl)-3-(pyridin-4-yl)-1H-pyrazol-4-yl]-2-fluorophenyl}pyrrolidine-1-sulfonamide]	< 10	> 70	10 to 50	30 to 70	< 10	30 to 70	< 10	> 70
O=C1CCC(c2ccc(N3CCC(CN4CCN(c5ccc(-n6cc(-c7cc(C(F)F)cc(NS(=O)(=O)N8CCCC8)c7F)c(-c7ccncc7)n6)c(F)c5)CC4)CC3)nc2)C(=O)N1 (racemic) [Compound 357, Rac-N-[5-(difluoromethyl)-3-[1-(4-{4-[(1-{5-[(3R)-2,6-dioxopiperidin-3-yl]pyridin-2-yl}piperidin-4-yl)methyl]piperazin-1-yl}-2-fluorophenyl)-3-(pyridin-4-yl)-1H-pyrazol-4-yl]-2-fluorophenyl]pyrrolidine-1-sulfonamide]	< 10	> 70	10 to 50	> 70	< 10	30 to 70	< 10	> 70
O=C1CCC(c2ccc(N3CCC(CN4CCN(c5cnc(-n6cc(-c7cc(Cl)cc(NS(=O)(=O)N8CCCC8)c7F)c(-c7ccncc7)n6)nc5)CC4)CC3)nc2)C(=O)N1 (racemic) [Compound 359, Rac-N-{5-chloro-3-[1-(5-{4-[(1-{5-[(3R)-2,6-dioxopiperidin-3-yl]pyridin-2-yl}piperidin-4-yl)methyl]piperazin-1-yl}pyrimidin-2-yl)-3-(pyridin-4-yl)-1H-pyrazol-4-yl]-2-fluorophenyl}pyrrolidine-1-sulfonamide]	< 10	> 70	< 10	> 70	< 10	> 70	< 10	> 70
O=C1CCC(c2ccc(N3CCC(CN4CCN(c5ccc(-n6cc(-c7cc(Cl)cc(NS(=O)(=O)N8CCCC8)c7F)c(-c7ccncc7)n6)cc5F)CC4)CC3)nc2)C(=O)N1 (racemic) [Compound 363, Rac-N-{5-chloro-3-[1-(4-{4-[(1-{5-[(3R)-2,6-dioxopiperidin-3-yl]pyridin-2-yl}piperidin-4-yl)methyl]piperazin-1-yl}-3-fluorophenyl)-3-(pyridin-4-yl)-1H-pyrazol-4-yl]-2-fluorophenyl}pyrrolidine-1-sulfonamide]	< 10	> 70	< 10	> 70	< 10	> 70	< 10	> 70
O=C1CCC(c2ccc(N3CCC(CN4CCN(c5ccc(-n6cc(-c7cc(Cl)cc(NS(=O)(=O)C8CCCC8)c7F)c(-c7ccncc7)n6)cc5)CC4)CC3)nc2)C(=O)N1 (racemic) [Compound 373, Rac-N-{5-chloro-3-[1-(4-{4-[(1-{5-[(3R)-2,6-dioxopiperidin-3-yl]pyridin-2-yl}piperidin-4-yl)methyl]piperazin-1-yl}phenyl)-3-(pyridin-4-yl)-1H-pyrazol-4-yl]-2-fluorophenyl}cyclopentanesulfonamide]	< 10	> 70	10 to 50	> 70	< 10	> 70	< 10	> 70
CCN(C)S(=O)(=O)Nc1cc(F)cc(-c2cn(-c3ccc(N4CCN(CC5CCN(c6ccc(C7CCC(=O)NC7=O)cn6)CC5)CC4)cc3)nc2-c2ccncc2)c1F (racemic) [Compound 376, Rac-(3R)-3-(6-{4-[(4-{4-[4-(3-{[ethyl(methyl)sulfamoyl]amino}-2,5-difluorophenyl)-3-(pyridin-4-yl)-1H-pyrazol-1-yl]phenyl}piperazin-1-yl)methyl]piperidin-1-yl}pyridin-3-yl)piperidine-2,6-dione]	< 10	> 70	10 to 50	30 to 70	< 10	> 70	< 10	> 70
CCCS(=O)(=O)Nc1cccc(-c2cn(-c3ccc(N4CCC(CN5CCN(c6ccc(C7CCC(=O)NC7=O)cc6)CC5)CC4)cc3)nc2-c2ccncc2)c1F (racemic) [Compound 381, Rac-(R)—N-(3-(1-(4-(4-((4-(4-(2,6-dioxopiperidin-3-yl)phenyl)piperazin-1-yl)methyl)piperidin-1-yl)phenyl)-3-(pyridin-4-yl)-1H-pyrazol-4-yl)-2-fluorophenyl)propane-1-sulfonamide]	10 to 50	> 70	10 to 50	30 to 70	< 10	30 to 70	10 to 50	30 to 70
